Columns and labels:
[1] = CC50 assay (CellTiter-Glo) in Huh-7 HCV replicon cells; format: cell-based, human; settings: human, 3 days incubation, CellTiter-Glo luminescence, read-out: CC50 (50% cytostatic concentration)
Protocol: (§1) The anti HCV activity of the quinazoline derivatives of this invention was tested in a human hepatoma Huh-7 cell line harbouring a HCV replicon. The assay comprised the following steps:
(§2) Step 1: compound preparation and serial dilution
(§3) • 1. for water soluble quinazoline derivatives, a volume of 500 μL of solution in cell media (DMEM, 10% FBS, P/S, L-Glutamine) was prepared with a concentration being twice the concentration of the starting final serial dilution concentration. A volume of 150 μL of the solution was added to the pre-specified wells in column 1 of a 96-well cell culture plate (PerkinElmer, white plate, cat. #6005181, for EC50 assay; black plate, cat. #6005182 for CC50 assay). The rest of the plate, columns 2-12, was filled with 100 μL of cell media. The plate was then placed on a Precision 2000 Workstation to start the serial dilution. Compounds were diluted three times each step from column 1 to column 10. Column 11 was used as a blank control (no compound added). • 2. for quinazoline derivatives requiring DMSO to dissolve, serial dilution is performed in 50% DMSO in a 384-well plate. A solution containing a compound at 100-fold concentration of the starting final serial dilution concentration was prepared in 50% DMSO and added to the pre-specified wells in column 1 of a polypropylene 384-well plate. The plate was then placed on a Precision 2000 Workstation to start the serial dilution. After the serial dilution, a volume of 2 μL of the solution was transferred from the 384-well plate to a 96-well cell culture plate containing 100 μL of cell media on a Biomek FX Workstation. The DMSO concentration in the final assay condition was 0.5% after cells are added to the plate and the total volume in each well is brought to 200 μL. Step 2: to each well of the serial dilution plate prepared above, 100 μL of cell media containing 6000 suspended Huh-7 HCV replicon cells was added with a Multidrop workstation. The plates were incubated for 3 days at 37° C. with 5% CO2. Step 3: Detection: • a) for the EC50 assay, the media in a 96-well cell culture plate was aspirated with a Biotek EL405 plate-washer. A volume of 200 μL of a solution containing a 1:1 mixture of cell-lysis buffer (Promega, Luciferase Cell Culture Lysis 5× Reagent, cat. #E1531) and luciferase substrate solution (Promega, Luciferase Assay, cat.# E4550) was added to each well of the plate with Multidrop. The plate was incubated for 30 minutes at room temperature before the luminescence signal was measured with a TopCount plate-reader. • b) for the CC50 assay, a volume of 100 μL of pre-mixed CeliTiter-Glo (Promega, cat.# G7572) solution is added directly to the cell culture in each well of the plate and the luminescence signal is measured with a TopCount plate-reader after 10 minutes of incubation at room temperature.
(§4) Results in the table below are expressed by the following data: • the 50% cytostatic concentration (CC50), i.e. the concentration that results in 50% inhibition of cell growth, and • the 50% effective concentration (EC50), i.e. the concentration that protects 50% of the cell monolayer from virus-induced cytopathic effect.

[2] = test system: HCV replicon in human hepatoma Huh-7 cell line; test: Anti-HCV replicon assay (EC50, luciferase readout); format: cell-based; settings: Hepatitis C virus, Huh-7, 72 h, read-out: EC50 (50% effective concentration)
Protocol: as §1, §2, §3, §4

Huh-7 HCV replicon cells = test: CC50 assay (CellTiter-Glo) in Huh-7 HCV replicon cells; format: cell-based, human; settings: 3 days incubation, CellTiter-Glo luminescence, read-out: CC50 (50% cytostatic concentration)
Protocol: as §1, §2, §3, §4

Row | SMILES | CC50 at 3 days [1] [µM] | EC50 [2] [nM] | CC50 (Huh-7 HCV replicon cells) [µM]
1 | COc1ccc(-c2ccc3nc(N)nc(N4CCOCC4)c3c2)cc1OC [Example 14, 2-amino-6-(3,4-dimethoxyphenyl)-4-(N-morpholino)quinazoline] | < 10 | < 300 | 
2 | COc1ccc(-c2ccc3nc(N)nc(Nc4cccc(Br)c4)c3c2)cc1OC [Example 16, 2-amino-6-(3,4-dimethoxyphenyl)-4-[N-(3-bromo)-anilino]-quinazoline] | > 20 | < 300 | 
3 | Nc1nc(N2CCOCC2)c2cc(-c3ccc(Cl)cc3)ccc2n1 [Example 27, 2-amino-6-(4-chlorophenyl)-4-(N-morpholino)-quinazoline] | 10 to 20 | 300 to 1000 | 
4 | Nc1nc(N2CCOCC2)c2cc(-c3ccc(F)cc3)ccc2n1 [Example 28, 2-amino-6-(4-fluorophenyl)-4-(N-morpholino)-quinazoline] | < 10 | 300 to 1000 | 
5 | CC(=O)Nc1ccc(-c2ccc3nc(N)nc(N4CCOCC4)c3c2)cc1 [Example 30, 2-amino-6-(4-acetamidophenyl)-4-(N-morpholino)quinazoline] | 10 to 20 | 1000 to 10000 | 
6 | CC(=O)Nc1ccc(-c2ccc3nc(N)nc(N4CCCCC4)c3c2)cc1 [Example 31, 2-amino-6-(4-acetamidophenyl)-4-(N-piperidino)quinazoline] | 10 to 20 | 1000 to 10000 | 
7 | CC(=O)Nc1ccc(-c2ccc3nc(N)nc(N4CCN(C(C)=O)CC4)c3c2)cc1 [Example 32, 2-amino-6-(4-acetamidophenyl)-4-(N-acetylpiperazino)quinazoline] | > 20 | 1000 to 10000 | 
8 | CC(=O)Nc1ccc(-c2ccc3nc(N)nc(N4CCN(C)CC4)c3c2)cc1 [Example 34, 2-amino-6-(4-acetamidophenyl)-4-(N-methylpiperazino)quinazoline] | 10 to 20 | 1000 to 10000 | 
9 | Fc1ccc(-c2ccc3ncnc(N4CCOCC4)c3c2)cc1 [Example 37, 6-(4-fluorophenyl)-4-(N-morpholino)-quinazoline] | > 20 | 1000 to 10000 | 
10 | Nc1ncnc2ccc(-c3ccc(F)cc3)cc12 [Example 39, 4-amino-6-(4-fluorophenyl)-quinazoline] | > 20 | 1000 to 10000 | 
11 | CCCNc1ncnc2ccc(-c3ccc(F)cc3)cc12 [Example 43, 4-(N-propylamino)-6-(4-fluorophenyl)-quinazoline] | > 20 | 1000 to 10000 | 
12 | CN(C)c1ncnc2ccc(-c3ccc(F)cc3)cc12 [Example 45, 4-(N,N-dimethylamino)-6-(4-fluorophenyl)-quinazoline] | > 20 | 1000 to 10000 | 
13 | Fc1ccc(-c2ccc3ncnc(NC4CC4)c3c2)cc1 [Example 47, 4-(N-cyclopropylamino)-6-(4-fluorophenyl)-quinazoline] | > 20 | 1000 to 10000 | 
14 | Nc1nc(Nc2ccccc2)c2cc(-c3ccc(F)cc3)ccc2n1 [Example 48, 2-amino-6-(4-fluorophenyl)-4-(N-anilino)-quinazoline] | < 10 | 300 to 1000 | 
15 | NS(=O)(=O)c1ccc(CNc2nc(NCC(F)(F)F)c3cc(-c4ccc(C(=O)NC5CC5)cc4)ccc3n2)cc1 [Example 51, N-Cyclopropyl-4-[2-(4-sulfamoyl-benzylamino)-4-(2,2,2-trifluoroethylamino)-quinazolin-6-yl]-benzamide] | > 20 | < 300 | 
16 | NS(=O)(=O)c1ccc(CNc2nc(NCC(F)(F)F)c3cc(-c4ccc(F)cc4)ccc3n2)cc1 [Example 52, 4-{[6-(4-Fluoro-phenyl)-4-(2,2,2-trifluoro-ethylamino)quinazolin-2-ylamino]-methyl}-benzenesulfonamide] | < 10 | < 300 | 
17 | Cn1ccc(Nc2nc(NC3CC3)c3cc(-c4ccc(F)cc4)ccc3n2)n1 [Example 54, N4-cyclopropyl-6-(4-fluoro-phenyl)-N2-(1-methyl-1H-pyrazol-3-yl)-quinazoline-2,4-diamine] | < 10 | < 300 | 
18 | COCCNc1nc(N)nc2ccc(-c3ccc(C(=O)NC4CC4)cc3)cc12 [Example 56, 4-[2-Amino-4-(2-methoxy-ethylamino)-quinazolin-6-yl]-N cyclopropyl-benzamide] |  |  | > 20

Source: US9259426B2, “4,6-di- and 2,4,6-trisubstituted quinazoline derivatives useful for treating viral infections” (Gilead Sciences, Inc., priority 2006, dated 2016)
